Test results reported in PubChem BioAssay AID1963841 (Molecular Pharmacology Branch, DTP, NCI, 2024).

Tested on: 439559-082-T-J2-PDC spheroid viability
Test: Anticancer human tumor 439559-082-T-J2-PDC patient-derived colon adenocarcinoma cell line growth inhibition [POLQ]
Settings: spheroids with HUVEC and MSC; for IC50: curve of first compound; for viability, T/C: stronger effect = lower value
Method in brief: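 Growth inhibition in 3D: complex spheroids (tumor PDC, HUVEC, MSC) treated with POLQ inhibitor combinations; where Cmax unknown, highest tested concentration 10 microM, except SN-38 at 1 microM.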

[1] = second compound 0.0316 µM, first compound 0.0316 µM
[2] = second compound 0.0316 µM, first compound 0.1 µM
[3] = second compound 0.0316 µM, first compound 0.316 µM
[4] = second compound 0.0316 µM, first compound 1 µM
[5] = second compound 0.0316 µM, first compound 3.16 µM
[6] = second compound 0.0316 µM, first compound 10 µM
[7] = second compound 0.1 µM, first compound 0.0316 µM
[8] = second compound 0.1 µM, first compound 0.1 µM
[9] = second compound 0.1 µM, first compound 0.316 µM
[10] = second compound 0.1 µM, first compound 1 µM
[11] = second compound 0.1 µM, first compound 3.16 µM
[12] = second compound 0.1 µM, first compound 10 µM
[13] = second compound 0.316 µM, first compound 0.0316 µM
[14] = second compound 0.316 µM, first compound 0.1 µM
[15] = second compound 0.316 µM, first compound 0.316 µM
[16] = second compound 0.316 µM, first compound 1 µM
[17] = second compound 0.316 µM, first compound 3.16 µM
[18] = second compound 0.316 µM, first compound 10 µM
[19] = second compound 1 µM, first compound 0.0316 µM
[20] = second compound 1 µM, first compound 0.1 µM
[21] = second compound 1 µM, first compound 0.316 µM
[22] = second compound 1 µM, first compound 1 µM
[23] = second compound 1 µM, first compound 3.16 µM
[24] = second compound 1 µM, first compound 10 µM
[25] = second compound 3.16 µM, first compound 0.0316 µM
[26] = second compound 3.16 µM, first compound 0.1 µM
[27] = second compound 3.16 µM, first compound 0.316 µM
[28] = second compound 3.16 µM, first compound 1 µM
[29] = second compound 3.16 µM, first compound 3.16 µM
[30] = second compound 3.16 µM, first compound 10 µM
[31] = second compound 10 µM, first compound 0.0316 µM
[32] = second compound 10 µM, first compound 0.1 µM
[33] = second compound 10 µM, first compound 0.316 µM
[34] = second compound 10 µM, first compound 1 µM
[35] = second compound 10 µM, first compound 3.16 µM
[36] = second compound 10 µM, first compound 10 µM
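Also: spheroids exposed to compounds for seven days before readout.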
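For viability, T/C in this document: 100% = DMSO vehicle control viability.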

O=c1[nH]cc(F)c(=O)[nH]1 + Cc1cccc(N(C)C(=O)C2C(O)CCN2c2nc(C)cc(C(F)(F)F)c2C#N)c1
IC50 (second compound 0.0316 µM): > 10 µM | IC50 (second compound 0.1 µM): > 10 µM | IC50 (second compound 0.316 µM): > 10 µM | IC50 (second compound 1 µM): > 10 µM | IC50 (second compound 3.16 µM): > 10 µM | IC50 (second compound 10 µM): > 10 µM | viability, T/C [1]: 102% | viability, T/C [2]: 93.3% | viability, T/C [3]: 82.2% | viability, T/C [4]: 78.3% | viability, T/C [5]: 71.9% | viability, T/C [6]: 66.7% | viability, T/C [7]: 106% | viability, T/C [8]: 91.4% | viability, T/C [9]: 80.8% | viability, T/C [10]: 76.6% | viability, T/C [11]: 73.4% | viability, T/C [12]: 70% | viability, T/C [13]: 104% | viability, T/C [14]: 97.4% | viability, T/C [15]: 84.6% | viability, T/C [16]: 75.1% | viability, T/C [17]: 73.1% | viability, T/C [18]: 68.8% | viability, T/C [19]: 97.5% | viability, T/C [20]: 94.4% | viability, T/C [21]: 84.3% | viability, T/C [22]: 73.7% | viability, T/C [23]: 76.7% | viability, T/C [24]: 71% | viability, T/C [25]: 93.1% | viability, T/C [26]: 94% | viability, T/C [27]: 84.5% | viability, T/C [28]: 72% | viability, T/C [29]: 71% | viability, T/C [30]: 68% | viability, T/C [31]: 91.8% | viability, T/C [32]: 83.3% | viability, T/C [33]: 78.7% | viability, T/C [34]: 70.8% | viability, T/C [35]: 71% | viability, T/C [36]: 64%

C=CC(=O)N1CCN(c2nc(=O)n(-c3c(C)ccnc3C(C)C)c3nc(-c4c(O)cccc4F)c(F)cc23)C(C)C1 (stereo unspecified) + Cc1cccc(N(C)C(=O)C2C(O)CCN2c2nc(C)cc(C(F)(F)F)c2C#N)c1
IC50 (second compound 0.0316 µM): > 10 µM | IC50 (second compound 0.1 µM): > 10 µM | IC50 (second compound 0.316 µM): > 10 µM | IC50 (second compound 1 µM): > 10 µM | IC50 (second compound 3.16 µM): > 10 µM | IC50 (second compound 10 µM): > 10 µM | viability, T/C [1]: 101% | viability, T/C [2]: 93.8% | viability, T/C [3]: 95.7% | viability, T/C [4]: 108% | viability, T/C [5]: 103% | viability, T/C [6]: 94.9% | viability, T/C [7]: 101% | viability, T/C [8]: 103% | viability, T/C [9]: 97% | viability, T/C [10]: 99.4% | viability, T/C [11]: 107% | viability, T/C [12]: 100% | viability, T/C [13]: 92.7% | viability, T/C [14]: 96.9% | viability, T/C [15]: 98% | viability, T/C [16]: 94.9% | viability, T/C [17]: 96% | viability, T/C [18]: 96.5% | viability, T/C [19]: 107% | viability, T/C [20]: 97.8% | viability, T/C [21]: 96.5% | viability, T/C [22]: 96.5% | viability, T/C [23]: 96% | viability, T/C [24]: 98% | viability, T/C [25]: 101% | viability, T/C [26]: 96.6% | viability, T/C [27]: 92.4% | viability, T/C [28]: 95.6% | viability, T/C [29]: 96.9% | viability, T/C [30]: 101% | viability, T/C [31]: 98.2% | viability, T/C [32]: 93.8% | viability, T/C [33]: 88% | viability, T/C [34]: 83.6% | viability, T/C [35]: 97.1% | viability, T/C [36]: 90.2%

CNCc1ccc(-c2[nH]c3cc(F)cc4c3c2CCNC4=O)cc1 + Nc1ccc(C#CCN(C(=O)Cc2ncc(C(F)(F)F)cc2C(F)(F)F)c2ccc(F)cc2)nn1
IC50 (second compound 0.0316 µM): > 10 µM | IC50 (second compound 0.1 µM): > 10 µM | IC50 (second compound 0.316 µM): > 10 µM | IC50 (second compound 1 µM): > 10 µM | IC50 (second compound 3.16 µM): > 10 µM | IC50 (second compound 10 µM): > 10 µM | viability, T/C [1]: 91.6% | viability, T/C [2]: 106% | viability, T/C [3]: 102% | viability, T/C [4]: 87.2% | viability, T/C [5]: 116% | viability, T/C [6]: 97.7% | viability, T/C [7]: 100% | viability, T/C [8]: 95.3% | viability, T/C [9]: 97.5% | viability, T/C [10]: 101% | viability, T/C [11]: 102% | viability, T/C [12]: 110% | viability, T/C [13]: 109% | viability, T/C [14]: 108% | viability, T/C [15]: 87.4% | viability, T/C [16]: 96.4% | viability, T/C [17]: 105% | viability, T/C [18]: 101% | viability, T/C [19]: 101% | viability, T/C [20]: 97.4% | viability, T/C [21]: 105% | viability, T/C [22]: 90.5% | viability, T/C [23]: 107% | viability, T/C [24]: 122% | viability, T/C [25]: 100% | viability, T/C [26]: 112% | viability, T/C [27]: 111% | viability, T/C [28]: 97.4% | viability, T/C [29]: 110% | viability, T/C [30]: 98.2% | viability, T/C [31]: 94.8% | viability, T/C [32]: 104% | viability, T/C [33]: 110% | viability, T/C [34]: 102% | viability, T/C [35]: 104% | viability, T/C [36]: 105%
